Experimental data from patent US20260138978A1, “POSITIVE ALLOSTERIC MODULATORS OF THE MUSCARINIC ACETYLCHOLINE RECEPTOR M1” (Vanderbilt University, priority 2022, published 2026).

Experiments:
[1] = molecular target: T1, human mAChRM1 (Homo sapiens, UniProt P11229); experiment: mAChR M1 cell-based functional assay (calcium mobilization), positive allosteric modulator activity: increase in the EC20 acetylcholine response; settings: for Emax: PAM mode; for EC50: read-out: PAM Activity Human M1 EC50
T1 construct: host or cells: CHO-K1
T1 sequence (P11229 1-460): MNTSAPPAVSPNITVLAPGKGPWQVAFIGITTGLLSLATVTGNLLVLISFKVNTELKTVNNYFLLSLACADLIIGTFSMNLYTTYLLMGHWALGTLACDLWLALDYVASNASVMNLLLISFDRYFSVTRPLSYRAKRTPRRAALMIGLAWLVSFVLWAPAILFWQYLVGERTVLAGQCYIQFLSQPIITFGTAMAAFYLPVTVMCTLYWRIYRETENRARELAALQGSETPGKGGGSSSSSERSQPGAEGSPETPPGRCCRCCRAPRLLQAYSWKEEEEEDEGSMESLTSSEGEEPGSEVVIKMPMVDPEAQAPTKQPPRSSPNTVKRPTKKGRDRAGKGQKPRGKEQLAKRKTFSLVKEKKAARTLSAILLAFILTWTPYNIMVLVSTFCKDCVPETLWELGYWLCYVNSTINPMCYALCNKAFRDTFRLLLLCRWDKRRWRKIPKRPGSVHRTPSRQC
Text: (§1) Chinese hamster ovary (CHO-K1) cells stably expressing rat (r)M1 were purchased from the American Type Culture Collection and cultured according to their indicated protocol. CHO cells stably expressing human (h)M2, hM3, and hM5 were described previously (Levey, et al., 1991); hM1 and hM4 cDNAs were purchased from Missouri S&T cDNA Resource; rM4 cDNA was provided by T. I. Bonner (National Institutes of Health, Bethesda, MD). rM2 and rM3 were cloned from a rat brain cDNA library and sequence verified. hM1, rM2, rM3, hM4, and rM4 cDNAs were used to stably transfect CHO-K1 cells purchased from the American Type Culture Collection using Lipofectamine 2000. To make stable rM2, hM2, rM3, hM4. and rM4 cell lines for use in calcium mobilization assays, these cells also were stably transfected with a chimeric G-protein (Gqi5) (provided by B. R. Conklin, University of California, San Francisco) using Lipofectamine 2000. rM1, hM1, rM3, hM3, rM5, and hM5 cells were grown in Ham's F-12 medium containing 10% heat-inactivated fetal bovine serum (FBS), 20 mM HEPES, and 50 μg/mL G418 sulfate. rM2-Gqi5, hM2-Gqi5, and hM4-Gqi5 cells were grown in the same medium also containing 500 µg/mL Hygromycin B. Stable rM4-Gqi5 cells were grown in DMEM containing 10% heat-inactivated FBS, 20 mM HEPES, 400 μg/mL G418 sulfate, and 500 μg/mL Hygromycin B.
(§2) For high throughput measurement of agonist-evoked increases in intracellular calcium, CHO-K1 cells stably expressing muscarinic receptors were plated in growth medium lacking G418 and hygromycin at 15,000 cells/[…] in Greiner 384-well black-walled, tissue culture (TC)-treated, clear-bottom plates (VWR). Cells were incubated overnight at 37° C. and 5% CO2. The next day, cells were washed using an ELX 405 (BioTek) with four washes (80 μL) of assay buffer then aspirated to 20 μL. Next, 20 μL of 16 μM Fluo-4/acetoxymethyl ester (Invitrogen, Carlsbad, CA) prepared as a 2.3 mM stock in DMSO and mixed in a 1:1 ratio with 10% (w/v) Pluronic F-127 and diluted in assay buffer was added to the wells and the cell plates were incubated for 50 min at 37° C. and 5% CO2. Dye was removed by washing with the ELX 405 (four 80 μL washes of assay buffer) then aspirated to 20 μL. Compound master plates were formatted in an 11 point CR^c format (1:3 dilutions) in 100% DMSO with a starting concentration of 10 mM using the BRAVO liquid handler (Agilent). Test compound CRCs were then transferred to daughter plates (240 nL) using the Echo acoustic plate reformatter (Labcyte, Sunnyvale, CA) and then diluted into assay buffer ([…]) to a 2× stock using a Thermo Fisher Combi (Thermo Fisher Scientific, Waltham, MA).
(§3) Calcium flux was measured using the Functional Drug Screening System (FDSS) 6000 (Hamamatsu Corporation, Tokyo, Japan) as an increase in the fluorescent static ratio. Compounds were applied to cells (20 μL, 2×) using the automated system of the FDSS 6000 at 4 s into the 300 s protocol and the data were collected at 1 Hz. […] Agonist activity was analyzed as a concentration-dependent increase in calcium mobilization upon compound addition. Emax values for agonist activity are expressed relative to the maximum for acetylcholine. Positive allosteric modulator activity was analyzed as a concentration-dependent increase in the EC20 acetylcholine response. Antagonist activity was analyzed as a concentration-dependent decrease in the EC80 acetylcholine response. Concentration-response curves were generated using a four-parameter logistical equation in XLfit curve fitting software (IDBS, Bridgewater, NJ) for Excel (Microsoft, Redmond, WA) or Prism (GraphPad Software, Inc., San Diego, CA).
Activity (EC50 and Emax) was determined in the mAChRM1 cell-based functional assay as described above and the data are shown in Table 16. The compound numbers correspond to the compound numbers used in Table 15.

[2] = molecular target: T1, human mAChRM1; experiment: mAChR M1 cell-based functional assay (calcium mobilization), agonist activity upon compound addition, Emax relative to acetylcholine maximum; settings: for Agonist Activity Human M1 EC50 / EC50: calcium mobilization upon compound addition; for Emax: relative to the maximum for acetylcholine
Text: Lack of agonist activity may be measured as weak or no increase in calcium fluorescence in mAChRM1-transfected CHO-K1 cells in the presence of the compound, compared to the response of equivalent CHO-K1 cells in the absence of the compound. Lack of mAChRM1 agonist activity may be determined as a percent response relative to acetylcholine. For example, a disclosed compound may have less than or equal to 30%, 25%, 20%, 15%, 10%, 5%, or 1% mAChRM1 agonist activity relative to acetylcholine. A disclosed compound may have substantially no mAChRM1 agonist activity. […] The absence of mAChRM1 agonist activity may contribute to the avoidance of cholinergic adverse effect liability.
as §1, §2
as §3, with “Antagonist activity was analyzed as a concentration-dependent decrease in the EC80 acetylcholine response. Concentration-response curves were generated using a four-parameter logistical equation in XLfit curve fitting software (IDBS, Bridgewater, NJ) for Excel (Microsoft, Redmond, WA) or Prism (GraphPad Software, Inc., San Diego, CA).” left out

[3] = increase in the EC20 acetylcholine response

| Emax [1] [%] | EC50 [1, 3] [nM] | Agonist Activity Human M1 EC50 [2] | EC50 [2] [nM] | Emax [2] [%] | PAM Activity Human M1 EC50 [1, 3] | SMILES |
| --- | --- | --- | --- | --- | --- | --- |
| 68 | 958 | inactive |  |  |  | Cc1cc(-c2cc(C(C)(C)O)c3nn(C)cc3c2)ccc1CN1Cc2ncccc2C1=O [Compound 35, 6-(4-(7-(2-hydroxypropan-2-yl)-2-methyl-2H-indazol-5-yl)-2-methylbenzyl)-6,7-dihydro-5H-pyrrolo[3,4-b]pyridin-5-one] |
| 82 | 398 |  | ≥ 10000 | 21 |  | Cn1cc2cc(-c3cc(F)c(CN4Cc5ncccc5C4=O)c(C4CC4)c3)cc(C(C)(C)O)c2n1 [Compound 88, 6-(2-cyclopropyl-6-fluoro-4-(7-(2-hydroxypropan-2-yl)-2-methyl-2H-indazol-5-yl)benzyl)-6,7-dihydro-5H-pyrrolo[3,4-b]pyridin-5-one] |
| 88 | 623 | inactive |  |  |  | [2H]C1([2H])c2ncccc2C(=O)N1Cc1ccc(-c2ccc(C(C)(C)O)c3nn(C)cc23)c(F)c1F [Compound 149, 6-(2,3-Difluoro-4-(7-(2-hydroxypropan-2-yl)-2-methyl-2H-indazol-4-yl)benzyl)-6,7-dihydro-5H-pyrrolo[3,4-b]pyridin-5-one-7,7-d2] |
| 84 | 124 |  | ≥ 10000 | 34 |  | Cc1cc(-c2ccc(C(C)(C)O)c3nn(C)cc23)cc(F)c1CN1Cc2cccnc2C1=O [Compound 123, 6-(2-fluoro-4-(7-(2-hydroxypropan-2-yl)-2-methyl-2H-indazol-4-yl)-6-methylbenzyl)-5,6-dihydro-7H-pyrrolo[3,4-b]pyridin-7-one] |
| 67 | 1650 |  |  |  |  | Cc1cc(-c2ccc(C(C)(C)O)cc2)cc(F)c1CN1Cc2cccnc2C1=O [Compound 118, 6-((3-fluoro-4′-(2-hydroxypropan-2-yl)-5-methyl-[1,1′-biphenyl]-4-yl)methyl)-5,6-dihydro-7H-pyrrolo[3,4-b]pyridin-7-one] |
| 74 | 2590 | inactive |  |  |  | Cn1cc2c(-c3cc(F)c(CN4Cc5ncc(C6CC6)cc5C4=O)c(F)c3)ccc(C(C)(C)O)c2n1 [Compound 175, 3-cyclopropyl-6-(2,6-difluoro-4-(7-(2-hydroxypropan-2-yl)-2-methyl-2H-indazol-4-yl)benzyl)-6,7-dihydro-5H-pyrrolo[3,4-b]pyridin-5-one] |
| 83 | 3280 | inactive |  |  |  | Cc1cc(-c2cc(C(C)(C)O)cc3nn(C)cc23)ccc1CN1Cc2ncccc2C1=O [Compound 27, 6-(4-(6-(2-hydroxypropan-2-yl)-2-methyl-2H-indazol-4-yl)-2-methylbenzyl)-6,7-dihydro-5H-pyrrolo[3,4-b]pyridin-5-one] |
| 65 | 135 |  | ≥ 10000 | 28 |  | Cc1cc(-c2ccc(C(C)(C)O)c3nn(C)cc23)cc(Cl)c1CN1Cc2ncccc2C1=O [Compound 65, 6-(2-chloro-4-(7-(2-hydroxypropan-2-yl)-2-methyl-2H-indazol-4-yl)-6-methylbenzyl)-6,7-dihydro-5H-pyrrolo[3,4-b]pyridin-5-one] |
| 72 | 2120 | inactive |  |  |  | CC(C)(O)c1ccc(-c2ccc(CN3Cc4ncccc4C3=O)c(F)c2)cc1 [Compound 13, 6-((3-fluoro-4′-(2-hydroxypropan-2-yl)-[1,1′-biphenyl]-4-yl)methyl)-6,7-dihydro-5H-pyrrolo[3,4-b]pyridin-5-one] |
| 66 | 297 |  | ≥ 10000 | 21 |  | Cn1cc2cc(-c3cc(F)c(CN4Cc5ncccc5C4=O)c(F)c3)cc(C(C)(C)O)c2n1 [Compound 33, 6-(2,6-difluoro-4-(7-(2-hydroxypropan-2-yl)-2-methyl-2H-indazol-5-yl)benzyl)-6,7-dihydro-5H-pyrrolo[3,4-b]pyridin-5-one] |
| 71 | 2670 | inactive |  |  |  | CC(C)(O)c1ccc(-c2cc(F)c(CN3Cc4ncccc4C3=O)c(F)c2)cc1F [Compound 7, 6-((3,3′,5-trifluoro-4′-(2-hydroxypropan-2-yl)-[1,1′-biphenyl]-4-yl)methyl)-6,7-dihydro-5H-pyrrolo[3,4-b]pyridin-5-one] |
| 68 | 1450 | inactive |  |  |  | CC(C)(O)c1ccc(-c2cc(F)c(CN3Cc4cccnc4C3=O)c(F)c2)cc1 [Compound 117, 6-((3,5-difluoro-4′-(2-hydroxypropan-2-yl)-[1,1′-biphenyl]-4-yl)methyl)-5,6-dihydro-7H-pyrrolo[3,4-b]pyridin-7-one] |
| 58 | 9570 | inactive |  |  |  | Cn1nc(-c2cc(F)c(CN3Cc4ncccc4C3=O)c(F)c2)c2ccc(C(C)(C)O)cc21 [Compound 52, 6-(2,6-difluoro-4-(6-(2-hydroxypropan-2-yl)-1-methyl-1H-indazol-3-yl)benzyl)-6,7-dihydro-5H-pyrrolo[3,4-b]pyridin-5-one] |
| 68 | 163 | inactive |  |  |  | COc1cc(-c2ccc(C(C)(C)O)c3nn(C)cc23)cc(F)c1CN1Cc2ncccc2C1=O [Compound 60, 6-(2-fluoro-4-(7-(2-hydroxypropan-2-yl)-2-methyl-2H-indazol-4-yl)-6-methoxybenzyl)-6,7-dihydro-5H-pyrrolo[3,4-b]pyridin-5-one] |
|  |  | inactive |  |  | inactive | Cn1cc2cc(C(C)(C)O)cc(-c3cc(F)c(CN4Cc5ncccc5C4=O)c(F)c3)c2n1 [Compound 86, 6-(2,6-difluoro-4-(5-(2-hydroxypropan-2-yl)-2-methyl-2H-indazol-7-yl)benzyl)-6,7-dihydro-5H-pyrrolo[3,4-b]pyridin-5-one] |
